In ChEMBL document CHEMBL2407078, “Indole-diterpenoids with anti-H1N1 activity from the aciduric fungus Penicillium camemberti OUCMDZ-1492” (J Nat Prod, 2013):
pIC50: −log10 of the molar value.

System: Influenza A virus (A/Puerto Rico/8/1934(H1N1))
Experiment: Antiviral activity against Influenza A virus (A/Puerto Rico/8/34(H1N1)) PR/8 infected in MDCK cells assessed as protection against virus-induced cytopathogenicity after 48 hrs by crystal-violet staining-based assay
Assay type: functional, organism-based
Conditions: PR/8, MDCK

Compound	pIC50
CC(C)(O)[C@H]1O[C@H]2CC[C@@]3(C)[C@@H](CC[C@H]4Cc5c([nH]c6ccccc56)[C@@]43C)[C@]2(O)[C@H](O)[C@H]1O	4.49
CC(C)(O)[C@@H]1CC[C@]2(C(=O)O)[C@H](CC[C@@]3(C)[C@H]2CC[C@H]2Cc4c([nH]c5ccccc45)[C@@]23C)O1	4.41
CC(C)(O)[C@@H]1CC=C2[C@H](CC[C@@]3(C)[C@H]2CC[C@H]2Cc4c([nH]c5ccccc45)[C@@]23C)O1	4.55
CC(C)=CCc1ccc2[nH]c3c(c2c1)C[C@@H]1CC[C@@]2(O)C4=CC(=O)[C@@H](C(C)(C)O)O[C@H]4CC[C@]2(C)[C@@]31C	5.18
CC(O)(CO)[C@H]1O[C@H]2CC[C@@]3(C)[C@@](O)(CC[C@H]4Cc5c([nH]c6ccccc56)[C@@]43C)C2=CC1=O (some centres not stated)	3.90
CC(C)(O)[C@H]1O[C@H]2CC[C@@]3(C)[C@@](O)(CC[C@H]4Cc5c([nH]c6ccccc56)[C@@]43C)C2=CC1=O [PAXILLINE]	4.75
CC(C)=CCc1cc2[nH]c3c(c2cc1CC=C(C)C)C[C@@H]1CC[C@@]2(O)C4=CC(=O)[C@@H](C(C)(C)O)O[C@H]4CC[C@]2(C)[C@@]31C	4.13
CC(C)=CCC[C@](C)(O)[C@H](O)CC/C(C)=C/CC/C(C)=C/Cc1c[nH]c2ccccc12	4.47
NC(=O)c1ncn([C@@H]2O[C@H](CO)[C@@H](O)[C@H]2O)n1 [RIBAVIRIN]	3.95
CC(C)(O)[C@H]1O[C@H]2CC[C@@]3(C)[C@@H](CC[C@H]4Cc5c([nH]c6ccccc56)[C@@]43C)C2=CC1=O [DEHYDROXYPAXILLINE]	< 3.82
CC(C)=CCC[C@]1(C)[C@@H](O)CC[C@@]2(C)[C@H]1CC[C@H]1Cc3c([nH]c4ccccc34)[C@@]12C [EMINDOLE SB]	4.58
CC(C)(O)[C@@H]1CC[C@]2(C)[C@H](CC[C@@]3(C)[C@H]2CC[C@H]2Cc4c([nH]c5ccccc45)[C@@]23C)O1 [PASPALINE]	4.11
